These results are taken from ChEMBL document CHEMBL1201862, “PubChem BioAssay data set” (2004).

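Results reflect a 48-hour exposure of cells in 96-well plates to compound at five concentrations. GI50: concentration for 50% inhibition of growth.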 Calls of active or inactive are those of the source. No stated cut-off is given here; in the data, active = GI50 up to about 1.1 µM and inactive = higher.

Test systems include CCRF-CEM; EKVX; HCC 2998; HCT-15; HL-60; HOP-92; Hs-578T; M14; MDA-MB-435; MDA-N; NCI-H522; OVCAR-4; OVCAR-5; OVCAR-8; PC-3; SF-295; SW-620; TK-10; UACC-257; UO-31.
Assay in all cases: inhibition of tumour cell growth, NCI panel, 48 h

As for `Cc1c(C#N)c2nnn(-c3cccc(Cl)c3)c(=O)n2c1-c1ccccc1`, the GI50 in the assay with CCRF-CEM was 3.66 µM (inactive); with EKVX, 5.69 µM (inactive); with HCC 2998, 3.48 µM (inactive); in the assay with HCT-15 it was 3.83 µM; in the assay with HL-60 it was 3.28 µM (inactive); with HOP-92 it was 26 µM (inactive). Moreover, the GI50 is 6.64 µM (inactive) in the assay with Hs-578T; 4.17 µM (inactive) in the assay with M14; 0.566 µM (active) in the assay on MDA-MB-435; 0.428 µM (active) in the assay on MDA-N; 1.93 µM (inactive) in the assay with NCI-H522; 8.61 µM (inactive) with OVCAR-4. Also, the GI50 with OVCAR-5 is 3.75 µM (inactive); in the assay on OVCAR-8, 5.31 µM (inactive); in the assay with PC-3, 0.875 µM (active); in the assay with SF-295, 1.45 µM (inactive); in the assay on SW-620, 4.3 µM (inactive); with TK-10, 9.91 µM (inactive). In addition, the results for the GI50 in the assay on UACC-257 and in the assay on UO-31 were 26.3 µM (inactive) and 8.97 µM (inactive), respectively.
In the case of `O=C1Nc2ccc(Br)cc2/C1=N/c1ccc2c(c1)OCO2`, the GI50 in the assay with CCRF-CEM is 14.7 µM (inactive); in the assay on EKVX, 25.8 µM (inactive); in the assay with HCC 2998 it was 15.7 µM (inactive); in the assay on HCT-15, 19.8 µM; with HL-60, 13.2 µM (inactive); with HOP-92 it was 50.1 µM (inactive). Besides, the GI50 is 30.5 µM (inactive) in the assay on Hs-578T; 20.5 µM (inactive) in the assay with M14; 9.35 µM (inactive) in the assay with MDA-MB-435; 15.7 µM (inactive) in the assay on MDA-N; 19.1 µM (inactive) with NCI-H522; 3.72 µM (inactive) with OVCAR-4. The GI50 in the assay on OVCAR-5 was 22.8 µM (inactive); in the assay with OVCAR-8 it was 32.5 µM (inactive); with PC-3, 16.3 µM (inactive); in the assay with SF-295, 24.8 µM (inactive); in the assay on SW-620, 22.4 µM (inactive); in the assay with TK-10, 27.3 µM (inactive). Also, the results for the GI50 in the assay with UACC-257 and in the assay with UO-31 were 18.3 µM (inactive) and 19.1 µM (inactive), respectively.
With `O=[N+]([O-])/C(Cl)=C(\Nc1ccccc1)C(Cl)=C(Cl)Cl`, the GI50 in the assay on CCRF-CEM was 12.7 µM (inactive); in the assay on EKVX, 39.8 µM (inactive); with HCC 2998 it was 37.5 µM (inactive); with HCT-15, 25.4 µM; in the assay on HL-60 it was 20.9 µM (inactive); with HOP-92, 28.9 µM (inactive). For the same compound, the GI50 was 34.3 µM (inactive) in the assay with Hs-578T; 23.7 µM (inactive) in the assay on M14; 18.5 µM (inactive) in the assay with MDA-MB-435; 36 µM (inactive) in the assay on MDA-N; 42.7 µM (inactive) in the assay on NCI-H522; 41.6 µM (inactive) in the assay on OVCAR-4. Also, the GI50 with OVCAR-5 is 40.8 µM (inactive); in the assay on OVCAR-8, 23.5 µM (inactive); with PC-3, 38.3 µM (inactive); in the assay with SF-295, 33 µM (inactive); with TK-10 it was 56.6 µM (inactive); in the assay with UACC-257, 49.8 µM (inactive). Further, the GI50 in the assay with UO-31 is 40.7 µM (inactive).
Turning to `COc1ccc(CC2c3cc(OC)c(OC)cc3CC[N+]2(C)C)cc1OC` (stereo not drawn), the GI50 in the assay with CCRF-CEM was > 100 µM (inactive); with EKVX, > 100 µM (inactive); with HCC 2998, > 100 µM (inactive); in the assay with HCT-15 it was more than 100 µM; with HL-60, > 100 µM (inactive); with HOP-92, > 100 µM (inactive). For the same compound, the GI50 in the assay on Hs-578T, in the assay with MDA-MB-435, in the assay on MDA-N, with NCI-H522, in the assay on OVCAR-4 and in the assay with OVCAR-5 was > 100 µM (inactive) throughout. Further, the GI50 in the assay with OVCAR-8, in the assay with PC-3, in the assay on SF-295, in the assay on SW-620, with TK-10 and in the assay on UACC-257 was > 100 µM (inactive) each time. The GI50 with UO-31 is > 100 µM (inactive).
